pEC50: −log10 of the molar value.
Molecular target: human F508del-CFTR (Homo sapiens, UniProt P13569, DEL508-508)
Experiment: F508del-CFTR cell surface expression (corrector activity), DiscoveRx ß-galactosidase complementation chemiluminescence assay in recombinant U2OS cell line;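 further: U2OS cells co-expressing ProLink-tagged F508del-CFTR and a membrane-anchored enzyme acceptor, where more surface CFTR restores β-galactosidase activity measured by chemiluminescence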
Settings: U2OS cell line, 16h compound incubation; for pEC50: EC50, F508del-CFTR cell surface expression, geomean values; for Emax: U2OS, in relation to the Emax of the corrector lumacaftor (=100%), arithmetic mean values

human F508del-CFTR, sequence (P13569 with tags, fused parts or gaps DEL508-508): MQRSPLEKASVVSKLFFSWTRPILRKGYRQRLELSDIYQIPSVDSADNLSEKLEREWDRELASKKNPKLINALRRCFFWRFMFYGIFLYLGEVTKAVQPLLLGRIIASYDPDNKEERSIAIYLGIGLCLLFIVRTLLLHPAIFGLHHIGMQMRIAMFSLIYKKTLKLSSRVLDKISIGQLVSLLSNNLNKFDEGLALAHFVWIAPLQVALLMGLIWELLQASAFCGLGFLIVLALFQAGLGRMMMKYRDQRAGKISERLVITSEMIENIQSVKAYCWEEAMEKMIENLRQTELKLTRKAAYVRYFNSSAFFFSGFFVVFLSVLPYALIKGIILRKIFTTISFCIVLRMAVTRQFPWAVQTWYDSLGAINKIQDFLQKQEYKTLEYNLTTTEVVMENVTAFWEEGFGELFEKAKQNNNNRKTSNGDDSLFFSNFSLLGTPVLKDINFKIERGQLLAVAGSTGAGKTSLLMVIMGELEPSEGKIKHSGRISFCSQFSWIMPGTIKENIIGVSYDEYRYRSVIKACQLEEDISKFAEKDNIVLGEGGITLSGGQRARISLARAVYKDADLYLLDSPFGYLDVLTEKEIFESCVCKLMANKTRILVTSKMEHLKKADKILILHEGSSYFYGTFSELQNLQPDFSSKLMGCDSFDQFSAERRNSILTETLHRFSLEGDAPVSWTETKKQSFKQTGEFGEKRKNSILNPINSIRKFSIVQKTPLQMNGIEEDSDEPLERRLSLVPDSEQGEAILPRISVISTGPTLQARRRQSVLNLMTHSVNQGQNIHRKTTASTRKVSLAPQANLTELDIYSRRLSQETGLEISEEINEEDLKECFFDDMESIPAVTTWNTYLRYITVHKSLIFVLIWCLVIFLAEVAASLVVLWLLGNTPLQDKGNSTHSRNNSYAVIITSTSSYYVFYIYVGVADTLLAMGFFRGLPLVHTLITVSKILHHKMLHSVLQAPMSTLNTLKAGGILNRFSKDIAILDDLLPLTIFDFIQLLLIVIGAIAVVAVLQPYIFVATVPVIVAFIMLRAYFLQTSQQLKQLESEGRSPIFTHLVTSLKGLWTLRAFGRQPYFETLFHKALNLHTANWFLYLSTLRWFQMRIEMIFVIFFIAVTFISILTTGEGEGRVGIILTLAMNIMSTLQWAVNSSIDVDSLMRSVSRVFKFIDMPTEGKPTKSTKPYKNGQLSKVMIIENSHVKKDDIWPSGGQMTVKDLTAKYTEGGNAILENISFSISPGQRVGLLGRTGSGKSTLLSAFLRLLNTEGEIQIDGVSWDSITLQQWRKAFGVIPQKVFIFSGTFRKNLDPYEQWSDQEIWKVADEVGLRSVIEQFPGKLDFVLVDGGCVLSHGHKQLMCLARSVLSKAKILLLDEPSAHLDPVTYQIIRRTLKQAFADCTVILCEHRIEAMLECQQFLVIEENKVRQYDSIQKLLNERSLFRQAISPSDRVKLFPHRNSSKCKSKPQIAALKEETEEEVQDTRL

SMILES | pEC50 | Emax [%]
COc1ccc(CCNC(=O)[C@@H]2CC(=O)N(C)[C@@H](CC(C)C)C(=O)N(C)CC(=O)N[C@H](Cc3ccccc3)COc3cc(OC)c(OC)cc3C(=O)N2)cc1 [Example 193, (3R,9S,13S)-3-benzyl-9-isobutyl-17,18-dimethoxy-N-(4-methoxyphenethyl)-7,10-dimethyl-5,8,11,15-tetraoxo-2,3,4,5,6,7,8,9,10,11,12,13,14,15-tetradecahydrobenzo[p][1]oxa[4,7,10,14]tetraazacycloheptadecine-13-carboxamide] | 6.28 | 118
CCOc1cccc(CCNC(=O)[C@@H]2CC(=O)N(C)[C@@H](CC(C)C)C(=O)N(C)CC(=O)N[C@H](Cc3ccccc3)COc3cc(OC)c(OC)cc3C(=O)N2)c1 [Example 194, (3R,9S,13S)-3-benzyl-N-(3-ethoxyphenethyl)-9-isobutyl-17,18-dimethoxy-7,10-dimethyl-5,8,11,15-tetraoxo-2,3,4,5,6,7,8,9,10,11,12,13,14,15-tetradecahydrobenzo[p][1]oxa[4,7,10,14]tetraazacycloheptadecine-13-carboxamide] | 6.21 | 178
COc1cccc(CCNC(=O)[C@@H]2CC(=O)N(C)[C@@H](CC(C)C)C(=O)N(C)CC(=O)N[C@H](Cc3ccccc3)COc3cc(OC)c(OC)cc3C(=O)N2)c1 [Example 195, (3R,9S,13S)-3-benzyl-9-isobutyl-17,18-dimethoxy-N-(3-methoxyphenethyl)-7,10-dimethyl-5,8,11,15-tetraoxo-2,3,4,5,6,7,8,9,10,11,12,13,14,15-tetradecahydrobenzo[p][1]oxa[4,7,10,14]tetraazacycloheptadecine-13-carboxamide] | 6.05 | 202
COc1cc2c(cc1OC)C(=O)N[C@H](C(=O)NCCc1ccccc1F)CC(=O)N(C)[C@@H](CC(C)C)C(=O)N(C)CC(=O)N[C@H](Cc1ccccc1)CO2 [Example 196, (3R,9S,13S)-3-benzyl-N-(2-fluorophenethyl)-9-isobutyl-17,18-dimethoxy-7,10-dimethyl-5,8,11,15-tetraoxo-2,3,4,5,6,7,8,9,10,11,12,13,14,15-tetradecahydrobenzo[p][1]oxa[4,7,10,14]tetraazacycloheptadecine-13-carboxamide] | 6.37 | 106
COc1cc2c(cc1OC)C(=O)N[C@H](C(=O)NCCc1ccc(N(C)C)cc1)CC(=O)N(C)[C@@H](CC(C)C)C(=O)N(C)CC(=O)N[C@H](Cc1ccccc1)CO2 [Example 197, (3R,9S,13S)-3-benzyl-N-(4-(dimethylamino)phenethyl)-9-isobutyl-17,18-dimethoxy-7,10-dimethyl-5,8,11,15-tetraoxo-2,3,4,5,6,7,8,9,10,11,12,13,14,15-tetradecahydrobenzo[p][1]oxa[4,7,10,14]tetraazacycloheptadecine-13-carboxamide] | 6.24 | 132
COc1cccc2c1C(=O)N[C@H](C(=O)NCCc1ccc3c(c1)OCO3)CC(=O)N(C)[C@@H](CC(C)C)C(=O)N(CCC1CCCCC1)CC(=O)N[C@H](Cc1ccccc1)CO2 [Example 198, (3R,9S,13S)-N-(2-(benzo[d][1,3]dioxol-5-yl)ethyl)-3-benzyl-7-(2-cyclohexylethyl)-9-isobutyl-16-methoxy-10-methyl-5,8,11,15-tetraoxo-2,3,4,5,6,7,8,9,10,11,12,13,14,15-tetradecahydrobenzo[p][1]oxa[4,7,10,14]tetraazacycloheptadecine-13-carboxamide] | 6.71 | 243
COc1cccc(CCNC(=O)[C@@H]2CC(=O)N(C)[C@@H](CC(C)C)C(=O)N(CCC3CCCCC3)CC(=O)N[C@H](Cc3ccccc3)COc3cccc(OC)c3C(=O)N2)c1 [Example 199, (3R,9S,13S)-3-benzyl-7-(2-cyclohexylethyl)-9-isobutyl-16-methoxy-N-(3-methoxyphenethyl)-10-methyl-5,8,11,15-tetraoxo-2,3,4,5,6,7,8,9,10,11,12,13,14,15-tetradecahydrobenzo[p][1]oxa[4,7,10,14]tetraazacycloheptadecine-13-carboxamide] | 6.64 | 214
[2H]C([2H])([2H])Oc1cccc(CCNC(=O)[C@@H]2CC(=O)N(C)[C@@H](CC(C)C)C(=O)N(CCC3CCCCC3)CC(=O)N[C@H](Cc3ccccc3)COc3cccc(OC)c3C(=O)N2)c1 [Example 200, (3R,9S,13S)-3-benzyl-7-(2-cyclohexylethyl)-9-isobutyl-16-methoxy-N-(3-(methoxy-d3)phenethyl)-10-methyl-5,8,11,15-tetraoxo-2,3,4,5,6,7,8,9,10,11,12,13,14,15-tetradecahydrobenzo[p][1]oxa[4,7,10,14]tetraazacycloheptadecine-13-carboxamide] | 6.68 | 270
CCOc1cccc(CCNC(=O)[C@@H]2CC(=O)N(C)[C@@H](CC(C)C)C(=O)N(CCC3CCCCC3)CC(=O)N[C@H](Cc3ccccc3)COc3cccc(OC)c3C(=O)N2)c1 [Example 201, (3R,9S,13S)-3-benzyl-7-(2-cyclohexylethyl)-N-(3-ethoxyphenethyl)-9-isobutyl-16-methoxy-10-methyl-5,8,11,15-tetraoxo-2,3,4,5,6,7,8,9,10,11,12,13,14,15-tetradecahydrobenzo[p][1]oxa[4,7,10,14]tetraazacycloheptadecine-13-carboxamide] | 6.65 | 109
COc1cccc2c1C(=O)N[C@H](C(=O)NCCc1ccc(C)cc1)CC(=O)N(C)[C@@H](CC(C)C)C(=O)N(CCC1CCCCC1)CC(=O)N[C@H](Cc1ccccc1)CO2 [Example 202, (3R,9S,13S)-3-benzyl-7-(2-cyclohexylethyl)-9-isobutyl-16-methoxy-10-methyl-N-(4-methylphenethyl)-5,8,11,15-tetraoxo-2,3,4,5,6,7,8,9,10,11,12,13,14,15-tetradecahydrobenzo[p][1]oxa[4,7,10,14]tetraazacycloheptadecine-13-carboxamide] | 6.73 | 160
COc1cccc2c1C(=O)N[C@H](C(=O)NCCc1ccc(N(C)C)cc1)CC(=O)N(C)[C@@H](CC(C)C)C(=O)N(CCC1CCCCC1)CC(=O)N[C@H](Cc1ccccc1)CO2 [Example 203, (3R,9S,13S)-3-benzyl-7-(2-cyclohexylethyl)-N-(4-(dimethylamino)phenethyl)-9-isobutyl-16-methoxy-10-methyl-5,8,11,15-tetraoxo-2,3,4,5,6,7,8,9,10,11,12,13,14,15-tetradecahydrobenzo[p][1]oxa[4,7,10,14]tetraazacycloheptadecine-13-carboxamide] | 6.74 | 134
COc1cccc2c1C(=O)N[C@H](C(=O)NCCc1ccccc1F)CC(=O)N(C)[C@@H](CC(C)C)C(=O)N(CCC1CCCCC1)CC(=O)N[C@H](Cc1ccccc1)CO2 [Example 204, (3R,9S,13S)-3-benzyl-7-(2-cyclohexylethyl)-N-(2-fluorophenethyl)-9-isobutyl-16-methoxy-10-methyl-5,8,11,15-tetraoxo-2,3,4,5,6,7,8,9,10,11,12,13,14,15-tetradecahydrobenzo[p][1]oxa[4,7,10,14]tetraazacycloheptadecine-13-carboxamide] | 6.70 | 173
COc1cc(CCNC(=O)[C@@H]2CC(=O)N(C)[C@@H](CC(C)C)C(=O)N(CCC3CCCCC3)CC(=O)N[C@H](Cc3ccccc3)COc3cccc(OC)c3C(=O)N2)cc(OC)c1 [Example 205, (3R,9S,13S)-3-benzyl-7-(2-cyclohexylethyl)-N-(3,5-dimethoxyphenethyl)-9-isobutyl-16-methoxy-10-methyl-5,8,11,15-tetraoxo-2,3,4,5,6,7,8,9,10,11,12,13,14,15-tetradecahydrobenzo[p][1]oxa[4,7,10,14]tetraazacycloheptadecine-13-carboxamide] | 6.76 | 229
COc1cccc2c1C(=O)N[C@H](C(=O)NCCc1cccs1)CC(=O)N(C)[C@@H](CC(C)C)C(=O)N(CCC1CCCCC1)CC(=O)N[C@H](Cc1ccccc1)CO2 [Example 206, (3R,9S,13S)-3-benzyl-7-(2-cyclohexylethyl)-9-isobutyl-16-methoxy-10-methyl-5,8,11,15-tetraoxo-N-(2-(thiophen-2-yl)ethyl)-2,3,4,5,6,7,8,9,10,11,12,13,14,15-tetradecahydrobenzo[p][1]oxa[4,7,10,14]tetraazacycloheptadecine-13-carboxamide] | 6.57 | 164
COc1ccc(CCNC(=O)[C@@H]2CC(=O)N(C)[C@@H](CC(C)C)C(=O)N(CCC3CCCCC3)CC(=O)N[C@H](Cc3ccccc3)COc3cccc(OC)c3C(=O)N2)nc1 [Example 207, (3R,9S,13S)-3-benzyl-7-(2-cyclohexylethyl)-9-isobutyl-16-methoxy-N-(2-(5-methoxypyridin-2-yl)ethyl)-10-methyl-5,8,11,15-tetraoxo-2,3,4,5,6,7,8,9,10,11,12,13,14,15-tetradecahydrobenzo[p][1]oxa[4,7,10,14]tetraazacycloheptadecine-13-carboxamide] | 6.50 | 138
COc1cccc2c1C(=O)N[C@H](C(=O)NCCc1ccco1)CC(=O)N(C)[C@@H](CC(C)C)C(=O)N(CCC1CCCCC1)CC(=O)N[C@H](Cc1ccccc1)CO2 [Example 208, (3R,9S,13S)-3-benzyl-7-(2-cyclohexylethyl)-N-(2-(furan-2-yl)ethyl)-9-isobutyl-16-methoxy-10-methyl-5,8,11,15-tetraoxo-2,3,4,5,6,7,8,9,10,11,12,13,14,15-tetradecahydrobenzo[p][1]oxa[4,7,10,14]tetraazacycloheptadecine-13-carboxamide] | 6.56 | 188
COc1cccc2c1C(=O)N[C@H](C(=O)NCCn1nc(C)cc1C)CC(=O)N(C)[C@@H](CC(C)C)C(=O)N(CCC1CCCCC1)CC(=O)N[C@H](Cc1ccccc1)CO2 [Example 209, (3R,9S,13S)-3-benzyl-7-(2-cyclohexylethyl)-N-(2-(3,5-dimethyl-1H-pyrazol-1-yl)ethyl)-9-isobutyl-16-methoxy-10-methyl-5,8,11,15-tetraoxo-2,3,4,5,6,7,8,9,10,11,12,13,14,15-tetradecahydrobenzo[p][1]oxa[4,7,10,14]tetraazacycloheptadecine-13-carboxamide] | 6.41 | 118

Reference: US20240208992A1, “MACROCYCLES AS CFTR MODULATORS” (Idorsia Pharmaceuticals Ltd, priority 2021, published 2024)
